Laboratory results: patent publication US9932353B2, “Imidazopyrimidine macrocycles as inhibitors of human immunodeficiency virus replication” (VIIV HEALTHCARE UK (NO. 5) LIMITED, priority 2014, dated 2018)
Read-outs that look alike come from different tables or passages of the source.

Test system: recombinant NL-RLuc virus (HIV NL4-3 with Renilla Luciferase) in MT-2 cells
Experiment: Inhibition of HIV replication (NL-RLuc virus in MT-2 cells, luciferase readout)
Format: cell-based
From the text: Inhibition of HIV Replication:
A recombinant NL-RLuc proviral clone was constructed in which a section of the nef gene from NL4-3 was replaced with the Renilla Luciferase gene. This virus is fully infectious and can undergo multiple cycles of replication in cell culture. In addition, the luciferous reporter provides a simple and easy method for quantitating the extent of virus growth and consequently, the antiviral activity of test compounds. The plasmid pNLRLuc contains the proviral NL-Rluc DNA cloned into pUC18 at the PvuII site. The NL-RLuc virus was prepared by transfection of 293T cells with the plasmid pNLRLuc. Transfections were performed using the LipofectAMINE PLUS kit from Invitrogen (Carlsbad, Calif.) according to the manufacturer and the virus generated was titered in MT-2 cells. For susceptibility analyses, the titrated virus was used to infect MT-2 cells in the presence of compound, and after 5 days of incubation, cells were processed and quantitated for virus growth by the amount of expressed luciferase. Assay media was RPMI 1640 supplemented with 10% heat inactivated fetal bovine serum (FBS), 100 units/ml penicillin G/100 units/ml streptomycin, 10 mM HEPES buffer pH 7.55 and 2 mM L-glutamine. The results from at least 2 experiments were used to calculate the EC50 values. Luciferase was quantitated using the Dual Luciferase kit from Promega (Madison, Wis.). Susceptibility of viruses to compounds was determined by incubation in the presence of serial dilutions of the compound. The 50% effective concentration (EC50) was calculated by using the exponential form of the median effect equation where (Fa)=1/[1+(ED50/drug conc.)^m] (Johnson V A, Byington R T. Infectivity Assay. In Techniques in HIV Research. ed. Aldovini A, Walker B D. 71-76. New York: Stockton Press. 1990).

[1] = NL-RLuc virus, MT-2 cells, 5 days of incubation, 10% FBS, luciferase, read-out: EC50

Row | Compound | EC50 [1] | EC50 (MT2, 120 h)
1 | Cc1nc2nc3cn2c(c1[C@H](OC(C)(C)C)C(=O)O)N1CCC(C)(CC1)OCCCCC(C)Oc1ccc(F)cc1-c1cccc-3c1 (stereo partly drawn) [Example 2, (2S)-2-(tert-butoxy)-2-[(22S/R)-17-fluoro-4,22,28-trimethyl-21,27-dioxa-1,5,7,34-tetraazahexacyclo[26.2.2.1^6,^9.1^10,^14.0^2,^7.0^15,^20]tetratriaconta-2,4,6(34),8,10(33),11,13,15(20),16,18-decaen-3-yl]acetic Acid] | 8 nM | 
2 | (2S)-2-(tert-butoxy)-2-[(22S/R)-17-fluoro-4,22,28-trimethyl-21,27-dioxa-1,5,7,34-tetraazahexacyclo[26.2.2.1^6,^9.1^10,^14.0^2,^7.0^15,^20]tetratriaconta-2,4,6(34),8,10(33),11,13,15(20),16,18-decaen-3-yl]acetic Acid [Example 3] | 77 nM | 
3 | Cc1ccc2c(c1)-c1cccc(c1)-c1cn3c(c([C@H](OC(C)(C)C)C(=O)O)c(C)nc3n1)N1CCC(C)(CC1)OCCCC[C@H](C)O2 [Example 1, (2S)-2-(tert-Butoxy)-2-[(22S)-4,17,22,28-tetramethyl-21,27-dioxa-1,5,7,34-tetraazahexacyclo[26.2.2.1^6,^9.1^10,^14.0^2,^7.0^15,^20]tetratriaconta-2,4,6(34),8,10(33),11,13,15(20),16,18-decaen-3-yl]acetic Acid] |  | 8 nM
